One assay relates to EBC1-shPAK1 cells. In words: pharmarray viability screen, 200 compound library, with or without PAK1 knockdown (CellTiter-Glo). Conditions: for EC50: Homo sapiens. Format: cell-based, human. A general note: ATP-based viability assays read luminescence as a measure of living cells.
The subject of assay [1] is EBC-1 cells. Briefly: cell killing by pharmacological PAK or Rac1 inhibitors combined with IAP inhibition. Format: cell-based, human. Conditions: pharmacological inhibitors of PAK or Rac1 catalytic activity; FIG. 7A. The text has this:
The prosurvival activity of IAP proteins is antagonized by the second mitochondrial activator of caspases (SMAC) (C. Du et al., Cell 2000 102:33-42; A. M. Verhagen, et al. Cell 2000 102:43-53) and a number of antagonists have been described that mimic SMAC amino-terminal peptides to disrupt the association of IAP with SMAC and activated caspase-9 (K. Zobel et al., ACS Chem. Biol. 2006 1:525-533; E. Varfolomeev et al., Cell 2007 131:669-681). In particular, BV6 (C. Ndubaku et al., Future Med. Chem. 2009 1(8):1509) represents one such class of small molecule antagonist that binds to baculovirus TAP repeat (BIR) domains and promotes rapid auto-ubiquitination and proteasomal degradation of c-TAP 1 and cIAP-2 (Zobel supra). Consistent with the small molecule screening data, strong combinatorial activity was confirmed for dual inhibition of PAK1 and IAP in EBC-1 cells (FIG. 5A). […] To further explore this apparent synergy we investigated possible molecular mechanisms of PAK1 and IAP inhibition on the induction of apoptosis. […] Lastly, additional NSCLC cell lines, including those that are only minimally responsive to the activity of either single agent, were examined for anti-tumor efficacy resulting from combined inhibition of PAK1 and IAP.

For another assay, the system named is MDA-MB-175 cells. Briefly: Annexin V/PI fluorescence-activated cell sorting after IPA-3 for 48 h. It counts as cell-based, human. The text has this:
FIG. 1-Analysis of PAK1 genomic amplification and functional role in human breast tumors. (A) Genomic Identification of Significant Targets in Cancer (GISTIC) analysis of 11q13 copy number gains. Points are proportionately spaced and arranged in genome order. Vertical line represents chromosome location of the PAK1 gene. […] (B) PAK1 DNA copy and mRNA expression dot plot depicts the relationship of DNA copy number to the 226507 at Affymetrix MAS 5.0 signal for 51 tumor samples. The Pearson correlation statistic (0.75) is shown for the plot. The solid line represents the best-fit line through these points. (C) Increasing proportion of Annexin V-positive cells following knockdown of PAK1 expression is shown for 3 breast cancer cell lines with focal PAK1 genomic amplification, MDA-MB-175, HCC1500 and MDA-MB-134 IV. Cells were harvested 3-5 days following transient transfection of pooled siRNA oligonucleotides. (D) Fluorescence-activated cell sorting analysis for Annexin V/PI. MDA-MB-175 cells were cultured in the presence or absence of IPA-3 for 48 h. Annexin V/PI staining was then done to assess apoptosis/necrosis. […]
To ascertain the role of PAK1 in cell survival, the quantity of cytoplasmic histone-associated DNA fragments was quantified using the Cell Death Detection ELISA Plus kit from Roche (Mannheim, Germany). […]

Another assay deals with SK-MES-1. Briefly: Cell Titer Glo viability after PAK1 siRNA and BV6. It counts as cell-based, human. Conditions: transient PAK1 siRNA followed by 5 μM BV6. How it is done:
(§1) FIG. 7—(A) Combinatorial accumulation of cleaved PARP and caspase-3 by PAK1 and IAP antagonism. Cells were incubated with Dox and […] for indicated time points, lysed and then used for Western blot analysis (B) Dual PAK1 and IAP inhibition results in a synergistic decrease in viability of SK-MES-1 (squamous subtype) and NCI-H441 (adenocarcinoma subtype) NSCLC cells. Cellular ATP consumption was determined via Cell Titer Glo assay following transient siRNA-mediated inhibition of PAK1 and 5 μM BV6 treatment as indicated.
(§2) The prosurvival activity of IAP proteins is antagonized by the second mitochondrial activator of caspases (SMAC) (C. Du et al., Cell 2000 102:33-42; A. M. Verhagen, et al. Cell 2000 102:43-53) and a number of antagonists have been described that mimic SMAC amino-terminal peptides to disrupt the association of IAP with SMAC and activated caspase-9 (K. Zobel et al., ACS Chem. Biol. 2006 1:525-533; E. Varfolomeev et al., Cell 2007 131:669-681). In particular, BV6 (C. Ndubaku et al., Future Med. Chem. 2009 1(8):1509) represents one such class of small molecule antagonist that binds to baculovirus TAP repeat (BIR) domains and promotes rapid auto-ubiquitination and proteasomal degradation of c-TAP 1 and cIAP-2 (Zobel supra). […]

The next assay deals with NCI-H441. In words: Cell Titer Glo viability after PAK1 siRNA and BV6. It counts as cell-based, human. Conditions: transient PAK1 siRNA followed by 5 μM BV6. As for the experimental part:
as §1, §2

The test system of assay [2] is EBC-1 cells. In words: PF-3758309 with BV6, in vitro combination efficacy, 4-day CellTiterGlo viability assay (Calcusyn). The conditions noted are these: Chou and Talalay method, CI ≦0.3 = strong synergy. It counts as cell-based, human. As for the experimental part: FIG. 10—Combination of ATP-competitive pan-PAK inhibitor PF-3758309 (B. W. Murray et al. Proc. Nat. Acad. Sci. USA 2010 107(20):9446-9471 and IAP small molecule antagonist results in apoptosis of squamous NSCLC cells. (A) Catalytic inhibition of PAK1 via PF-3758309 treatment was tested with BV6 for in vitro combination efficacy in EBC-1 cells using a 4-day CellTiterGlo viability assay. Calcusyn, a program utilizing the Chou and Talalay (Chou T C, Talalay P. Quantitative analysis of dose-effect relationships: the combined effects of multiple drugs or enzyme inhibitors. Adv. Enzyme Regul. 1984; 22:27-55) method of calculating synergy, was used to calculate the combination index and, thus, determine the level of synergy. Strong synergy, as indicated by combination index (CI) values ≦0.3, was observed (CI=0.113).
A determination of a synergistic interaction between a PAK1 inhibitor and a second anti-hyperproliferative agent may be based on the results obtained from the assays described herein. The combinations provided by this invention have been evaluated in several assay systems, and the data can be analyzed utilizing a standard program for quantifying synergism, additivism, and antagonism among anticancer agents. The program preferably utilized is that described by Chou and Talalay, in “New Avenues in Developmental Cancer Chemotherapy,” Academic Press, 1987, Chapter 2. […]

The subject of assay [3] is Cells transfected with XIAP-specific siRNA. In words: Cell Titer Glo viability after XIAP siRNA and PAK SMI. It counts as cell-based. Conditions: XIAP siRNA 48 h, then PAK SMI 72 h; p<0.0001. As for the experimental part:
Cells were transfected with non-targeting control (NTC) or XIAP-specific siRNA oligonucleotides for 48 h prior to treatment with DMSO or PAK SMI as indicated for an additional 72 h. Cell viability was determined via Cell Titer Glo assay and results represent mean±standard deviation from three experiments. (B) Combined antagonism of XIAP and PAK1 promotes efficient cleavage of PARP and caspase-3. XIAP siRNA oligonucleotides were transfected for 72 h prior to treatment with DMSO or […] PAK SMI.

The subject of assay [4] is SKMES-1, Calu-6, Cal-120 cells. Briefly: CellTiter-Glo viability after PAK1 and PAK2 siRNA plus MEK and PI3K inhibitors. The conditions noted are these: with PAK1 and PAK2 siRNA, 3 days. It counts as cell-based, human. How it is done:
FIG. 11—Combinatorial effect of PAK1, PAK2, MEK and PI3K inhibition on tumor cell viability. CellTiter-Glo® (CTG) assays of cellular viability were performed following PAK1 and PAK2 siRNA transfection and compound treatment for 3 days, as indicated.
Taken together, these studies provide strong preclinical support that breast and NSCLC may provide several opportunities for rational combination therapies with PAK1 inhibitors. In one embodiment of the present invention there is provided a method of treating tumors comprising contacting the tumor with a PAK 1 inhibitor and a second anti-hyperproliferative compound.

Where [5] appears, read: 72 h, read-out: Single agent EC50.
The mark [6] stands for this setting: single agent vs combination with PAK1 knockdown.
[7] abbreviates: EBC-1-shPAK1 cells without PAK1 knockdown, 72 hr compound treatment, read-out: Single agent EC50.
Where [8] appears, read: PAK1 knockdown shRNA (300 ng/mL doxycycline 3 days prior) and compound, 72 hr, read-out: Combo PAKi EC50.

Read-outs that look alike come from different tables or passages of the source. Numbered stars: 1 amine (or outer) side, 2 acyl side, 3 side chain; on linkers, the order of the positions; unused ones are H or OH. Bridge positions count the residues as written; N and C are the ends. Square brackets hold non-standard residues; d marks the D form. Peptide text beside a SMILES is read from it. I, II: the chains in the order shown. Hexamethylenediamine = C(CCCN[*:2])CCN[*:1]; Dip = N[C@H](C(=O)O)C(c1ccccc1)c1ccccc1; Chg = N[C@H](C(=O)O)C1CCCCC1; NMeA = CN[C@@H](C)C(=O)O A value given as a limit tells only on which side of the number the result lay.

In the case of `N#CC(=C(/N)Sc1ccccc1N)/C(C#N)=C(\N)Sc1ccccc1N` [U0126], the “Fold change in EC50” value in the assay with EBC1-shPAK1 cells was determined as 8.45. For the same compound, the EC50 (as a rule, the concentration needed to bring the measured effect to its halfway point) in the assay with EBC1-shPAK1 cells (setting [5]) was determined as 19.5 µM; in the assay on EBC1-shPAK1 cells (read-out: Combo PAKi EC50), 2.3 µM.
In the case of `O=c1[nH]c2ccccc2n1C1CCN(Cc2ccc(-c3nc4cc5[nH]cnc5cc4nc3-c3ccccc3)cc2)CC1` [Akt inhibitor VIII], the “Fold change in EC50” value with EBC1-shPAK1 cells (setting [6]) is given as 1.58.
Take `Oc1ccc2ccccc2c1SSc1c(O)ccc2ccccc12` [IPA-3]: the “cell killing combined with IAP inhibition” value in the assay on EBC-1 cells [1] is on record as “enhanced cell killing”. Also, the “induction of apoptosis, fold increase (Annexin-V/propidium iodide)” value with MDA-MB-175 cells came out at 7 fold.
As to `CS(=O)(=O)CCNCc1ccc(-c2ccc3ncnc(Nc4ccc(OCc5cccc(F)c5)c(Cl)c4)c3c2)o1` [lapatinib], the figures for the EC50 with EBC1-shPAK1 cells (setting [7]) and in the assay on EBC1-shPAK1 cells (setting [8]) were 6.31 µM and 0.86 µM, respectively. Moreover, in the assay on EBC1-shPAK1 cells (setting [6]), the “Fold change in EC50” value worked out at 7.34.
On to `COc1cc2c(Nc3ccc(Br)cc3F)ncnc2cc1OCC1CCN(C)CC1` [ZD6474], for which the EC50 was at least 20 µM in the assay with EBC1-shPAK1 cells (setting [7]) and 6.88 µM in the assay on EBC1-shPAK1 cells (setting [8]). In the assay with EBC1-shPAK1 cells (setting [6]), the “Fold change in EC50” value is 2.91.
As for `C#Cc1cccc(Nc2ncnc3cc(OCCOC)c(OCCOC)cc23)c1` [erlotinib], the “Fold change in EC50” value in the assay with EBC1-shPAK1 cells was 15.02. The EC50 with EBC1-shPAK1 cells (setting [5]) was at least 20 µM; in the assay on EBC1-shPAK1 cells (read-out: Combo PAKi EC50), 1.56 µM.
`CN(C)c1nc(N(C)C)nc(N(C)C)n1` [altretamine]: the EC50 is at least 20 µM with EBC1-shPAK1 cells (setting [7]) and 3.94 µM in the assay on EBC1-shPAK1 cells (setting [8]). Besides, the “Fold change in EC50” value with EBC1-shPAK1 cells (setting [6]) is listed as 5.07.
In the case of `CN[C@@H](C)C(=O)N[C@H](C(=O)N1CCC[C@H]1C(=O)N[C@H](C(=O)NCCCCCCNC(=O)[C@@H](NC(=O)[C@@H]1CCCN1C(=O)[C@@H](NC(=O)[C@H](C)NC)C1CCCCC1)C(c1ccccc1)c1ccccc1)C(c1ccccc1)c1ccccc1)C1CCCCC1` [BV6] (I: H-[NMeA][Chg]P[Dip] / II: H-[NMeA][Chg]P[Dip]; linker I:C-II:C via Hexamethylenediamine), the “Fold change in EC50” value with EBC1-shPAK1 cells (setting [6]) was determined as 57.54. For the same compound, the cell viability result with SK-MES-1 and in the assay on NCI-H441 was “significant reduction” throughout.
On to `Cc1nc(Nc2n[nH]c3c2CN(C(=O)N[C@H](CN(C)C)c2ccccc2)C3(C)C)c2sccc2n1` [PF-3758309], for which, in the assay on EBC-1 cells [1], the “cell killing combined with IAP inhibition” value is given as “enhanced cell killing”. Further, the “combination index (CI)” value in the assay on EBC-1 cells [2] is listed as 0.113. In addition, the “proapoptotic activity with XIAP down-regulation” value in assay [3] is “potentiates the proapoptotic activity”.
Take `CCN(CC)CCCC(C)Nc1nc(C)cc(Nc2ccc3nc(C)cc(N)c3c2)n1` (stereo not drawn) [NSC23766]: the “cell killing combined with IAP inhibition” value in the assay with EBC-1 cells [1] is “enhanced cell killing”.
Consider `O=C1[O][Pt]2([NH][C@@H]3CCCC[C@H]3[NH]2)[O]C1=O` [oxaliplatin], for which the “Fold change in EC50” value in the assay with EBC1-shPAK1 cells was determined as 4.23.
As for `CS(=O)(=O)N1CCN(Cc2cc3nc(-c4cccc5[nH]ncc45)nc(N4CCOCC4)c3s2)CC1` [GDC-0941], the “combinatorial efficacy, reduced cellular viability” value in assay [4] was “Combinatorial efficacy”.
Turning to `Cc1nc(Nc2ncc(C(=O)Nc3c(C)cccc3Cl)s2)cc(N2CCN(CCO)CC2)n1` [dasatinib], the half-maximal effective concentration (EC50) with EBC1-shPAK1 cells (setting [7]) worked out at 8.29 µM; in the assay with EBC1-shPAK1 cells (setting [8]), 1.53 µM. Further, in the assay with EBC1-shPAK1 cells (setting [6]), the “Fold change in EC50” value is reported as 5.43.

Source of the values: US20140038959A1, “METHODS OF TREATING TUMORS” (Genentech, Inc., priority 2011, published 2014).
